Assay results: ChEMBL document CHEMBL1201862, “PubChem BioAssay data set” (2004)
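48-hour exposure; five concentrations; linearly interpolated endpoints. GI50 = concentration required for 50% inhibition of growth.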 Activity calls are given as the source filed them. Rule as the data show it: active = GI50 up to about 1.1 µM and inactive = higher.

Key:
Test in all cases: NCI-60 cell line screen, 48 h
786-0 = system: 786-0
A498 = system: A498
CCRF-CEM = system: CCRF-CEM
COLO 205 = system: COLO 205
DLD-1 = system: DLD-1
DMS-114 = system: DMS-114
HOP-62 = system: HOP-62
IGROV-1 = system: IGROV-1
KM-20L2 = system: KM-20L2
LOX IMVI = system: LOX IMVI
LXFL 529 = system: LXFL 529
M19-MEL = system: M19-MEL
Malme-3M = system: Malme-3M
NCI-H226 = system: NCI-H226
NCI-H460 = system: NCI-H460
NCI-H522 = system: NCI-H522
OVCAR-3 = system: OVCAR-3
OVCAR-8 = system: OVCAR-8
SF-268 = system: SF-268
SF-295 = system: SF-295
SF-539 = system: SF-539
SK-MEL-28 = system: SK-MEL-28
SK-OV-3 = system: SK-OV-3
SN12C = system: SN12C
SNB-78 = system: SNB-78
SW-620 = system: SW-620
TK-10 = system: TK-10
U-251 = system: U-251
UACC-257 = system: UACC-257
UACC-62 = system: UACC-62
A549 = system: A549
ACHN = system: ACHN
BT-549 = system: BT-549
CAKI-1 = system: CAKI-1
DU-145 = system: DU-145
EKVX = system: EKVX
HCC 2998 = system: HCC 2998
HCT-116 = system: HCT-116
HCT-15 = system: HCT-15
HL-60 = system: HL-60
HOP-92 = system: HOP-92
HT-29 = system: HT-29
Hs-578T = system: Hs-578T
K562 = system: K562
KM12 = system: KM12
M14 = system: M14
MCF7 = system: MCF7
MDA-MB-231 = system: MDA-MB-231
MDA-MB-435 = system: MDA-MB-435
MDA-N = system: MDA-N
MOLT-4 = system: MOLT-4
NCI-H23 = system: NCI-H23
NCI/ADR-RES = system: NCI/ADR-RES
OVCAR-4 = system: OVCAR-4
OVCAR-5 = system: OVCAR-5
PC-3 = system: PC-3
RPMI-8226 = system: RPMI-8226
RXF 393 = system: RXF 393
SK-MEL-2 = system: SK-MEL-2
SK-MEL-5 = system: SK-MEL-5
SNB-19 = system: SNB-19
SNB-75 = system: SNB-75
SR = system: SR
T47D = system: T47D
UO-31 = system: UO-31
DMS-273 = system: DMS-273
HOP-18 = system: HOP-18

Measured: GI50

CCCCCCCCCCCCCB(O)O
inactive: 786-0 95.5 µM | A498 50.2 µM | CCRF-CEM 57.8 µM | COLO 205 > 100 µM | DLD-1 65.2 µM | DMS-114 65.5 µM | HOP-62 > 100 µM | IGROV-1 > 100 µM | KM-20L2 60.7 µM | LOX IMVI > 100 µM | LXFL 529 81.8 µM | M19-MEL > 100 µM | Malme-3M > 100 µM | NCI-H226 96.2 µM | NCI-H460 85.5 µM | NCI-H522 51.3 µM | OVCAR-3 50.7 µM | OVCAR-8 > 100 µM | SF-268 69.2 µM | SF-295 > 100 µM | SF-539 > 100 µM | SK-MEL-28 > 100 µM | SK-OV-3 > 100 µM | SN12C 66.2 µM | SNB-78 58.1 µM | SW-620 61.5 µM | TK-10 > 100 µM | U-251 60.4 µM | UACC-257 > 100 µM | UACC-62 > 100 µM

CC(=O)C(C(c1ccccc1)N1CCOCC1)N1CCOCC1 (stereo not drawn)
inactive: 786-0 > 100 µM | A498 > 100 µM | A549 > 100 µM | ACHN > 100 µM | BT-549 > 100 µM | CAKI-1 > 100 µM | CCRF-CEM 16.9 µM | COLO 205 > 100 µM | DU-145 > 100 µM | EKVX > 100 µM | HCC 2998 20.3 µM | HCT-116 > 100 µM | HL-60 > 100 µM | HOP-62 > 100 µM | HOP-92 > 100 µM | HT-29 > 100 µM | Hs-578T > 100 µM | IGROV-1 > 100 µM | K562 > 100 µM | KM12 > 100 µM | LOX IMVI > 100 µM | M14 > 100 µM | MCF7 > 100 µM | MDA-MB-231 > 100 µM | MDA-MB-435 > 100 µM | MDA-N > 100 µM | MOLT-4 > 100 µM | Malme-3M > 100 µM | NCI-H226 > 100 µM | NCI-H23 > 100 µM | NCI-H460 19.2 µM | NCI-H522 > 100 µM | NCI/ADR-RES > 100 µM | OVCAR-3 > 100 µM | OVCAR-4 > 100 µM | OVCAR-5 > 100 µM | OVCAR-8 > 100 µM | PC-3 > 100 µM | RPMI-8226 > 100 µM | RXF 393 > 100 µM | SF-268 > 100 µM | SF-295 > 100 µM | SF-539 > 100 µM | SK-MEL-28 > 100 µM | SK-MEL-2 > 100 µM | SK-MEL-5 > 100 µM | SK-OV-3 > 100 µM | SN12C > 100 µM | SNB-19 > 100 µM | SNB-75 > 100 µM | SR 83.9 µM | SW-620 > 100 µM | T47D > 100 µM | TK-10 22.6 µM | U-251 > 100 µM | UACC-257 18.5 µM | UACC-62 > 100 µM | UO-31 > 100 µM
> 100 µM: HCT-15

c1ccc(C2=NOC3C4CCC(C4)C23)cc1 (stereo not drawn)
active: CAKI-1 < 0.01 µM
inactive: 786-0 > 100 µM | A498 > 100 µM | A549 > 100 µM | ACHN > 100 µM | CCRF-CEM > 100 µM | COLO 205 > 100 µM | DLD-1 > 100 µM | DMS-114 > 100 µM | DMS-273 > 100 µM | EKVX > 100 µM | HCC 2998 > 100 µM | HCT-116 > 100 µM | HL-60 > 100 µM | HOP-18 > 100 µM | HOP-62 > 100 µM | HOP-92 > 100 µM | HT-29 > 100 µM | IGROV-1 > 100 µM | K562 > 100 µM | KM12 > 100 µM | LXFL 529 > 100 µM | M14 > 100 µM | M19-MEL > 100 µM | MOLT-4 > 100 µM | Malme-3M > 100 µM | NCI-H226 > 100 µM | NCI-H23 > 100 µM | NCI-H460 > 100 µM | NCI-H522 > 100 µM | OVCAR-3 > 100 µM | OVCAR-4 > 100 µM | OVCAR-5 > 100 µM | OVCAR-8 > 100 µM | RPMI-8226 > 100 µM | SF-268 > 100 µM | SF-295 > 100 µM | SF-539 > 100 µM | SK-MEL-28 > 100 µM | SK-MEL-2 > 100 µM | SK-MEL-5 > 100 µM | SK-OV-3 > 100 µM | SN12C > 100 µM | SNB-19 > 100 µM | SNB-75 > 100 µM | SNB-78 > 100 µM | SR > 100 µM | SW-620 > 100 µM | TK-10 > 100 µM | U-251 > 100 µM | UACC-257 > 100 µM | UACC-62 > 100 µM | UO-31 > 100 µM
> 100 µM: HCT-15
